Experimental data published in patent US20080044390A1, “Methods and compositions for the treatment of neurodegenerative disorders” (priority 2006, published 2008).
Read-outs that look alike come from different tables or passages of the source. *1 amine or outer side, *2 acyl side, *3 side chain or, on linkers, in order; H or OH if unused. Where a SMILES comes first, the peptide text is derived from it. [ ]: non-standard residue; d: D form. The star is where a group is joined. hPhe = N[CH](CCc1ccccc1)C(=O)O; Morpholide = C1CN(*)CCO1; CO = O=C([*:1])[*:2]; CH2F = FC*

Test system: PC12/HttN90Q103 cells
Experiment: ATPlite assay, rescue of HttN90Q103-induced cell death
Type: cell-based, rat
Description: In this stable PC12 line (PC12/HttN90Q103), transcription of the Htt transgene is driven by an ecdysone-regulated promoter such that the expression of HttN90Q103 can be turned on or off by the addition or removal of the non-steroidal ecdysone analog tebufenozide (teb).
Using the engineered PC12/HttN90Q103 cell line together with Perkin Elmer's ATPlite™ assay kit or CellTiter-Blue™ assay, a high throughput assay to screen small molecules for their ability to prevent mutant Htt exon 1-induced cell death was developed and optimized.
The following formulas were used to calculate mutant Htt-induced cytotoxicity and test compound rescue: % killing=[(un-induced−induced-DMSO treated)/un-induced]×100 % rescue=[(drug treated−induced-DMSO treated)/(un-induced−induced-DMSO treated)]×100
For single-agent ranking, the assay was performed in 384-well plates to obtain duplicate dose response curves in 12-step dilutions with a dosing ratio f=2 over 3 orders of magnitude. […]
Day 1—Add Compounds 4 hours post-induction • 1) Remove compound plates from dessicator. • 2) Using the PlateMate, prepare dilution plate with 100 μL per well of the complete cell medium at room temperature in clear untreated 384-well plates. • 3) Using the MiniTrak, make compound dilution plates: 1 μL from each well of stock plates into 100 μL of media in the dilution plate for a 1:100 dilution (10× stock in media). • 4) Using the MiniTrak, add 4.5 μL of the diluted stock to each well of cells in assay plates. • 5) Make positive control solution: dilute 20 mM stock of BOC-D-FMK in media for a 10× stock. • 6) Manually add 4.5 μL positive control to C1-N1. • 7) Incubate plates at 37° C. for three days. • (for ranking combinations, steps 5 and 6 are omitted as there is positive control on the compound plates)
Day 4—Perform ATPlite™ Assay • 1) Take plates out of the incubator. • 2) Using the PlateMate, add 40 μL of ATPlite™ 1-step solution (Perkin Elmer) to each well of the assay plates. • 3) Wait ten minutes to allow plates to dark-adapt. • 4) Read luminescence intensity in Wallac plate reader using […]

[1] = Rattus norvegicus, PC-12, read-out: Max Effect (% rescue)
[2] = Rattus norvegicus, PC-12, ATPlite, single agent, 250 nM tebufenozide induction, read-out: Max Effect (% rescue)
[3] = Rattus norvegicus, PC-12, ATPlite, single agent, sigmoidal fit of 12-step dose response, read-out: EC50
[4] = ATPlite, single agent, 250 nM tebufenozide induction
[5] = ATPlite, single agent, sigmoidal fit of 12-step dose response, read-out: EC50

Row | Compound | Emax [2] | EC50 [3] | other results
1 | CC1=C(O)C(=O)C=C2C1=CC=C1[C@@]2(C)CC[C@@]2(C)[C@@H]3C[C@](C)(C(=O)O)CC[C@]3(C)CC[C@]12C [Celastrol] | – | – | EC50 (Rattus norvegicus, PC-12): 0.3 µM; Emax [1]: 19%
2 | O=c1c(O)c(-c2ccc(O)c(O)c2)oc2cc(O)cc(O)c12 [Quercetin] | 23% | 16.4 µM | –
3 | CCN(CC)CCCC(C)Nc1ccnc2cc(Cl)ccc12 (centres unmarked) [Chloroquine] | – | – | EC50 (Rattus norvegicus, PC-12): 9.7 µM
4 | O=C1Cc2c([nH]c3ccc(Br)cc23)-c2ccccc2N1 [Kenpaullone] | 87% | 4.7 µM | –
5 | CC(=O)ON=C1C(=O)N(Cc2cc(Cl)ccc2Cl)c2ccc(Cl)cc21 [UCH-L1 inhibitor] | – | – | Max Effect (% rescue) [4]: 21%; EC50 [5]: 0.5 µM
6 | CC[C@@H](C(=O)O)[C@@H]1O[C@@H]([C@@H](C)[C@H](O)[C@H](C)C(=O)[C@H](CC)[C@H]2O[C@]3(C=C[C@@H](O)[C@]4(CC[C@@](C)([C@H]5CC[C@](O)(CC)[C@H](C)O5)O4)O3)[C@H](C)C[C@@H]2C)[C@@H](C)C[C@@H]1C [Narasin] | 15% | 0.1 µM | –
7 | CC(C)c1ccc2oc3nc(N)c(C(=O)O)cc3c(=O)c2c1 [Amlexanox] | – | – | EC50 (Rattus norvegicus, PC-12): 5.7 µM; Emax [1]: 18%
8 | CCCC(CCC)C(=O)O [Divalproex] | 19% | 15.2 µM | –
9 | CN1CCN(C(=O)OC2c3nccnc3C(=O)N2c2ccc(Cl)cn2)CC1 (centres unmarked) [Zopiclone] | – | – | EC50 (Rattus norvegicus, PC-12): 6.7 µM; Emax [1]: 25%
10 | O=C1Nc2ccc3ncsc3c2/C1=C/c1cnc[nH]1 [PKR inhibitor] | – | – | Max Effect (% rescue) [4]: 124%; EC50 [5]: 1.2 µM
11 | O=c1c(O)c(-c2ccc(O)cc2)oc2cc(O)cc(O)c12 [Kaempferol] | 15% | 12.2 µM | –
12 | Nc1ncnc2c1c(I)cn2[C@@H]1C[C@H](N)[C@@H](O)[C@H]1O [Agent A-134974, N^7-[(1′R,2′S,3′R,4′S)-2′,3′-dihydroxy-4′-aminocyclopentyl]-4-amino-5-iodopyrrolopyrimidine] | – | – | Max Effect (% rescue) [4]: 22%; EC50 [5]: 13.3 µM
13 | CN(CCOc1ccc(CC2SC(=O)NC2=O)cc1)c1ccccn1 (centres unmarked) [Rosiglitazone] | 13% | 8.5 µM | –
14 | NC(=O)NO [Hydroxyurea] | 22% | 7.5 µM | –
15 | CC(=O)S[C@@H]1CC2=CC(=O)CC[C@]2(C)[C@H]2CC[C@@]3(C)[C@@H](CC[C@@]34CCC(=O)O4)[C@H]12 [Spironolactone] | 22% | 9.1 µM | –
16 | C=C[C@@]1(C)CC(=O)[C@]2(O)[C@@]3(C)[C@@H](O)CCC(C)(C)[C@@H]3[C@H](O)[C@H](OC(C)=O)[C@@]2(C)O1 [Forskolin] | 18% | 0.2 µM | –
17 | Maduramicin NH4 | – | – | Max Effect (% rescue) [4]: 19%; EC50 [5]: 0.04 µM
18 | CC[C@@H](C(=O)[C@@H](C)[C@@H](O)[C@H](C)[C@@H]1O[C@@H]([C@@H](CC)C(=O)O)CC[C@@H]1C)[C@H]1O[C@]2(C=C[C@@H](O)[C@]3(CC[C@@](C)([C@H]4CC[C@](O)(CC)[C@H](C)O4)O3)O2)[C@H](C)C[C@@H]1C [Salinomycin] | – | – | EC50 (Rattus norvegicus, PC-12): 0.2 µM; Emax [1]: 24%
19 | O=C(Nc1cccc(C2=NCCN2)c1)Nc1cccc(C2=NCCN2)c1 [Imidocarb] | 24% | 15.9 µM | –
20 | CC(C=NNC(=N)N)=NNC(=N)N [Methylglyoxal bis(guanylhydrazone)] | 79% | 7.7 µM | –
21 | CC(=O)C(=O)O [Pyruvate] | 5% | 1.2 µM | –
22 | N[C@@H]1C[C@H]1c1ccccc1 (racemic) [Tranylcypromine] | – | – | Max Effect (% rescue) [4]: 16%; EC50 [5]: 2.2 µM
23 | O=C1Cc2c([nH]c3ccc([N+](=O)[O-])cc23)-c2ccccc2N1 [Alsterpaullone] | 64% | 1.8 µM | –

Row | Compound | Emax [2] | EC50 [3] | other results
24 | O=C1Nc2ccccc2/C1=C1/Nc2ccccc2/C1=N\O [Indirubin-3′-monooxime] | – | – | Max Effect (% rescue) [4]: 30%; EC50 [5]: 2.4 µM
25 | CCN(CC)Cc1cc(Nc2ccnc3cc(Cl)ccc23)ccc1O [Amodiaquine] | 62% | 12.3 µM | –
26 | O=S(=O)([O-])[O-].[O]=[V+2] [Vanadyl] | – | – | Max Effect (% rescue) [4]: 19%; EC50 [5]: 0.6 µM
27 | O=C(/C=C/c1ccc(O)cc1)c1ccc(O)cc1O [Isoliquiritigenin] | 27% | 12.5 µM | –
28 | CCCC(=O)Nc1ncnc2c1ncn2[C@@H]1O[C@@H]2COP(=O)(O)O[C@H]2[C@H]1OC(=O)CCC [Bucladesine] | 18% | 19.6 µM | –
29 | CC(C)[C@H](NC(=O)c1ccc2ccccc2n1)C(=O)N[C@@H](CC(=O)O)C(=O)COc1c(F)cccc1F [Q-VD-OPH] | – | – | Max Effect (% rescue) [4]: 72%; EC50 [5]: 0.6 µM
30 | c1ccc(CN(CCN(Cc2ccccn2)Cc2ccccn2)Cc2ccccn2)nc1 [TPEN, N,N,N′,N′-tetrakis(2-pyridylmethyl)-ethylenediamine] | 15% | 3 µM | –
31 | NC1CCN(c2nc3c(cc2F)c(=O)c(C(=O)O)cn3-c2ccc(F)cc2F)C1 (centres unmarked) [Tosufloxacin] | 20% | 9.9 µM | –
32 | O=C(CF)C(CCc1ccccc1)NC(=O)C(Cc1ccccc1)NC(=O)N1CCOCC1 (centres unmarked) [BML-248, N-morpholineurea-phenylalanyl-homophenylalanylfluoromethyl ketone] ({Morpholide-CO}-Phe-[hPhe]-CH2F; configuration not given here) | – | – | Max Effect (% rescue) [4]: 24%; EC50 [5]: 7.1 µM
33 | O=C(NO)c1ccccc1 [Benzohydroxamic acid] | 15% | 6.9 µM | –
34 | CC1CNCCN1S(=O)(=O)c1cccc2cnccc12 (centres unmarked) [1-(5-isoquinolinesulfonyl)-2-methylpiperazine] | 28% | 15.5 µM | –
35 | COc1ccc2c(c1)/C(=C/c1cnc[nH]1)C(=O)N2 [SU9516, 3-[1-(3H-imidazol-4-yl)-meth-(Z)-ylidene]-5-methoxy-1,3-dihydro-indol-2-one] | 66% | 3.3 µM | –
36 | COC(=O)CC(NC(=O)OC(C)(C)C)C(=O)CF [Caspase inhibitor III (BOC-D-fmk)] | – | – | % rescue (20 μM, positive control, 72 hours following tebufenozide induction): More than 50%; Max Effect (% rescue) [4]: 119%; EC50 [5]: 3.9 µM
37 | CCN(CCO)CCCC(C)Nc1ccnc2cc(Cl)ccc12 (centres unmarked) [Hydroxychloroquine] | 29% | 5.2 µM | –
38 | N=C(N)c1ccc(/N=N/Nc2ccc(C(=N)N)cc2)cc1 [Diminazene] | 35% | 5.6 µM | –
39 | OC[C@H]1O[C@@H](n2cnc3cc(Cl)c(Cl)cc32)[C@H](O)[C@@H]1O [5,6-dichloro-1-β-D-ribofuranosylbenzimidazole] | – | – | EC50 (Rattus norvegicus, PC-12): 5.1 µM; Emax [1]: 26%
40 | O=c1c(O)c(-c2ccc(O)c(O)c2)oc2cc(O)ccc12 [Fisetin] | 52% | 12.4 µM | –
41 | N#C/C(=C\c1ccc(O)c(O)c1)C(N)=O [Tyrphostin 46] | – | – | Max Effect (% rescue) [4]: 23%; EC50 [5]: 23.5 µM
42 | C[C@]12CCC(=O)C[C@@H]1CC[C@@H]1[C@@H]2CC[C@]2(C)[C@@H](O)CC[C@@H]12 [Androstanolone] | – | – | EC50 (Rattus norvegicus, PC-12): 8 µM; Emax [1]: 15%
43 | CCCCC1C(=O)NN(c2ccccc2)C1=O (centres unmarked) [Mofebutazone] | 19% | 5.6 µM | –
44 | O=S(=O)(c1cccc2cnccc12)N1CCCNCC1 [Fasudil] | 26% | 9.9 µM | –
45 | CO[C@@H]1C[C@@H](C[C@H]2CC[C@H](C)[C@H]([C@@H](C)C(=O)O)O2)O[C@]2(O[C@](C)([C@H]3CC[C@@](C)([C@@H]4O[C@@H]([C@H]5O[C@@](O)(CO)[C@H](C)C[C@@H]5C)C[C@@H]4C)O3)C[C@H]2C)[C@@H]1C [Nigericin] | 36% | – | –
